Counter-ions that a name gives are not always drawn. Like-named read-outs stand apart in the source and are kept apart here.
Legend:
S. aureus FabI = molecular target: T1, S. aureus FabI (Staphylococcus aureus, UniProt Q6GI75); test: Inhibition of S. aureus FabI; type: biochemical
T1 sequence (Q6GI75 1-256): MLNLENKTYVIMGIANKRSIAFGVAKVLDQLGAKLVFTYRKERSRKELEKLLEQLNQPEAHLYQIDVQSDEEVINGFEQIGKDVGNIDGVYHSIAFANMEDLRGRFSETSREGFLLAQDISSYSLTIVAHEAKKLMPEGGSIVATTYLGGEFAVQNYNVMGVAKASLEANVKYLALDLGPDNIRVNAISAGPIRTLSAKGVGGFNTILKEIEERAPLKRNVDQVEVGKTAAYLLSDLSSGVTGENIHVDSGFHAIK

[1] = Photostability of solid salts; type: physicochemical
[2] = Solution stability in 5% dextrose in water (D5W); type: physicochemical
Escherichia coli = test: Broth microdilution MIC; type: cell-based; details: Escherichia coli, read-out: MIC
Description: (§1) Bacterial Isolates. Organisms tested in this study are listed in Table P. Clinical isolates consisted of 5 Staphylococcus aureus (MSSA), 3 Staphylococcus aureus (HA-MRSA), 2 Staphylococcus aureus (CA-MRSA), 2 Enterococcus faecalis (VSE), 2 Streptococcus pyogenes, and 2 Escherichia coli (susceptible to most antibiotics). S. aureus ATCC 29213, E. faecalis ATCC 29212, S. pneumoniae ATCC 49619, and E. coli ATCC 25922 were tested for the purposes of quality control.
(§2) Minimal Inhibitory Concentrations (MIC) values against the selected isolates were determined using the reference broth microdilution method according to the Clinical Laboratory Standards Institute (CLSI) guidelines.
(§3) The MIC was read and recorded as the lowest concentration of drug that inhibited visible growth of the organism.

Enterococcus faecalis = test: Broth microdilution MIC; type: cell-based
Description: as §1, §2, §3

Streptococcus pneumoniae = test: Broth microdilution MIC; type: cell-based; details: ATCC49619, S. pneumoniae ATCC 49619, read-out: MIC
Description: as §1, §2, §3

Staphylococcus aureus = test: Broth microdilution MIC; type: cell-based; details: for MIC: Staphylococcus aureus, read-out: MIC
Description: as §1, §2, §3

Streptococcus pyogenes = test: Broth microdilution MIC; type: cell-based
Description: as §1, §2, §3

[3] = XRPD crystal form after storage; type: physicochemical; details: after 3 months at all conditions
Description: (§4) Various compounds disclosed herein have been placed on long-term solid-state stability protocol. The compounds were stored in glass vials closed with PTFE lined caps at 30° C./65% RH, 40° C./75% RH, 50° C. and 60° C. (ambient humidity). The results of the study after 4 weeks are shown in Table B1 and after 3 months in Table B2. Appearance and purity analysis were conducted using HPLC and XPRD. The HPLC analyses were conducted using standard equipment such as a Agilent HP1100 HPLC (Station ID: LZPES HPLC 04) with YMC-Pack ODS-AQ sub 3 μm, 150×4.6 mm Samples were prepared for XRPD by sprinkling ˜20 mg onto a Si wafer zero background plate and pressing the material flat to ensure the surface is smooth and level. The samples were analyzed according the equipment parameters below.

[4] = Stability to gamma irradiation; type: physicochemical
Description: There was no change in appearance and it remained partially crystalline over 1 month at all storage conditions.

[5] = Solid-state stability (HPLC % area after storage); type: physicochemical
Description: as §4, with “mm” for “mm Samples were prepared for XRPD by sprinkling ˜20 mg onto a Si wafer zero background plate and pressing the material flat to ensure the surface is smooth and level. The samples were analyzed according the equipment parameters below.”

[6] = 1 mg/mL solution, 5° C., 4 hours
[7] = 1 mg/mL solution, 5° C., 24 hours
[8] = 1 mg/mL solution, 5° C., 48 hours
[9] = 1 mg/mL solution, −20° C., 48 hours
[10] = 25 mg/mL solution, 5° C., 4 hours
[11] = 25 mg/mL solution, 5° C., 24 hours
[12] = 25 mg/mL solution, 5° C., 48 hours
[13] = 25 mg/mL solution, RT, 24 hours
[14] = 25 mg/mL solution, RT, 48 hours
[15] = 25 mg/mL solution, −20° C., 48 hours

Cc1c(CN(C)C(=O)/C=C/c2cnc3c(c2)CCC(=O)N3COP(=O)(O)O)oc2ccccc12 [Compound 10, (E)-6-[(N-methyl-((3-methylbenzofuran-2-yl)methyl)amino)-3-oxoprop-1-en-1-yl)-2-oxo-3,4-dihydro-1,8-naphthyridin-1(2H)-yl]methylphosphate bis-ethanolammonium salt]
inhibition of S. aureus FabI (S. aureus FabI): no inhibition | Control % Area (Table C) ([1]; control sample at ambient lab conditions protected from light): 98.9 % Area | Photo-stability % Area ([1]; exposed to 60% of ICH minimum): 97.7 % Area | Solution stability [2, 6]: 0.99 mg/mL | Solution stability % Area [2, 6]: 99.4 % Area | Solution stability [2, 7]: 0.99 mg/mL | Solution stability % Area [2, 7]: 98.8 % Area | Solution stability [2, 8]: 1.00 mg/mL | Solution stability % Area [2, 8]: 98.1 % Area | Solution stability ([2]; 1 mg/mL solution, Initial): 1.00 mg/mL | Solution stability % Area ([2]; 1 mg/mL solution, Initial): 99.5 % Area | Solution stability ([2]; 1 mg/mL solution, RT, 4 hours): 0.99 mg/mL | Solution stability % Area ([2]; 1 mg/mL solution, RT, 4 hours): 99 % Area | Solution stability ([2]; 1 mg/mL solution, RT, 24 hours): 0.96 mg/mL | Solution stability % Area ([2]; 1 mg/mL solution, RT, 24 hours): 96.1 % Area | Solution stability ([2]; 1 mg/mL solution, RT, 48 hours): 0.95 mg/mL | Solution stability % Area ([2]; 1 mg/mL solution, RT, 48 hours): 93.1 % Area | Solution stability [2, 9]: 0.99 mg/mL | Solution stability % Area [2, 9]: 99.3 % Area | Solution stability [2, 10]: 24.9 mg/mL | Solution stability % Area [2, 10]: 99.3 % Area | Solution stability [2, 11]: 24.5 mg/mL | Solution stability % Area [2, 11]: 98.7 % Area | Solution stability [2, 12]: 24.5 mg/mL | Solution stability % Area [2, 12]: 98.1 % Area | Solution stability ([2]; 25 mg/mL solution, Initial): 24.4 mg/mL | Solution stability % Area ([2]; 25 mg/mL solution, Initial): 99.6 % Area | Solution stability ([2]; 25 mg/mL solution, RT, 4 hours): 24 mg/mL | Solution stability % Area ([2]; 25 mg/mL solution, RT, 4 hours): 98.9 % Area | Solution stability [2, 13]: 23.8 mg/mL | Solution stability % Area [2, 13]: 95.6 % Area | Solution stability [2, 14]: 23 mg/mL | Solution stability % Area [2, 14]: 92.1 % Area | Solution stability [2, 15]: 24.6 mg/mL | Solution stability % Area [2, 15]: 99.3 % Area | MIC (Escherichia coli; ATCC25922, E. coli ATCC 25922): > 16 µg/mL | MIC (Escherichia coli; E. coli 2214): > 16 µg/mL | MIC (Escherichia coli; E. coli 5255): > 16 µg/mL | MIC (Enterococcus faecalis; ATCC29212, E. faecalis ATCC 29212, read-out: MIC): > 16 µg/mL | MIC (Enterococcus faecalis; E. faecalis 4158, VSE, read-out: MIC): > 16 µg/mL | MIC (Enterococcus faecalis; E. faecalis 4212, VSE, read-out: MIC): > 16 µg/mL | MIC (Streptococcus pneumoniae): > 16 µg/mL | MIC (Staphylococcus aureus; ATCC29213, S. aureus ATCC 29213): 4 µg/mL | MIC (Staphylococcus aureus; MRSA, S. aureus 3083, HA-MRSA): 4 µg/mL | MIC (Staphylococcus aureus; MRSA, S. aureus 3086, HA-MRSA): 16 µg/mL | MIC (Staphylococcus aureus; MRSA, S. aureus 3265, HA-MRSA): 16 µg/mL | MIC (Staphylococcus aureus; MSSA, S. aureus 3104, MSSA): > 16 µg/mL | MIC (Staphylococcus aureus; MSSA, S. aureus 3107, MSSA): 8 µg/mL | MIC (Staphylococcus aureus; MSSA, S. aureus 3245, MSSA): 16 µg/mL | MIC (Staphylococcus aureus; MSSA, S. aureus 3250, MSSA): 8 µg/mL | MIC (Staphylococcus aureus; MSSA, S. aureus 3856, MSSA): 16 µg/mL | MIC (Staphylococcus aureus; S. aureus 2168, CAMRSA): 4 µg/mL | MIC (Staphylococcus aureus; S. aureus 2294, CAMRSA): 16 µg/mL | times less activity than Compound Z (Staphylococcus aureus; panel of 11 S. aureus strains): 500-4000 times | MIC (Streptococcus pyogenes; S. pyogenes 6528): >16 µg/mL | MIC (Streptococcus pyogenes; Streptococcus pyogenes, S. pyogenes 6179, read-out: MIC): > 16 µg/mL | change in crystal form (XRPD) [3]: no change in crystal form | stability to gamma irradiation exposure ([4]; 28.6-30.9 kGy): stable to gamma irradiation | stability to gamma irradiation ([4]; crystalline, 25 to 31 kGy): stable to gamma irradiation | Solid-state stability % Area ([5]; 3 months, 30° C./65% RH): 98.61 % Area | Solid-state stability % Area ([5]; 3 months, 40° C./75% RH): 92.75 % Area | Solid-state stability % Area ([5]; 3 months, 50° C./ambient humidity): 99.04 % Area | Solid-state stability % Area ([5]; 3 months, Control (ambient lab conditions protected from light)): 98.9 % Area | Solid-state stability % Area ([5]; 4 weeks, 30° C./65% RH): 98.5 % Area | Solid-state stability % Area ([5]; 4 weeks, 40° C./75% RH): 98.2 % Area | Solid-state stability % Area ([5]; 4 weeks, 50° C./ambient humidity): 99.3 % Area | Solid-state stability % Area ([5]; 4 weeks, 60° C./ambient humidity): 98.7 % Area | Solid-state stability % Area ([5]; 4 weeks, Control (ambient lab conditions protected from light)): 98.9 % Area | physical and chemical stability ([5]; over 3 months at 30° C./65% RH and 50° C., closed vials, light protected): physically and chemically stable
